Reference: publication PMC5991783, “Discovery and Optimization of Indolyl-Containing 4-Hydroxy-2-Pyridone Type II DNA Topoisomerase Inhibitors Active against Multidrug Resistant Gram-negative Bacteria” (Journal of Medicinal Chemistry, 2018)
In brackets after ≈: the same amount, converted by molar mass. Structures can show the parent of a compound that is named as a salt. Where two headings read alike, the source gives them in different places. Marks after values point to notes of the source that are not given here.

What was measured:
E. coli DNA gyrase = E. coli DNA gyrase (Escherichia coli, UniProt P0AES4+P0AES6); assay: biochemical
[1] = Pharmacokinetics in CD-1 mice; conditions: CD-1, mouse, plasma, iv, 10 mg/kg
[2] = test system: panel of 12 A. baumannii isolates; assay: Susceptibility testing, 12 A. baumannii isolates; format: cell-based, Acinetobacter baumannii
human topoisomerase II = human topoisomerase II (Homo sapiens, UniProt P11388); assay: Human topoisomerase II decatenation assay; format: biochemical; conditions: Supplemental Table 1; read-out: Human Topo II IC50
human topoisomerase II, sequence (P11388 whole entry): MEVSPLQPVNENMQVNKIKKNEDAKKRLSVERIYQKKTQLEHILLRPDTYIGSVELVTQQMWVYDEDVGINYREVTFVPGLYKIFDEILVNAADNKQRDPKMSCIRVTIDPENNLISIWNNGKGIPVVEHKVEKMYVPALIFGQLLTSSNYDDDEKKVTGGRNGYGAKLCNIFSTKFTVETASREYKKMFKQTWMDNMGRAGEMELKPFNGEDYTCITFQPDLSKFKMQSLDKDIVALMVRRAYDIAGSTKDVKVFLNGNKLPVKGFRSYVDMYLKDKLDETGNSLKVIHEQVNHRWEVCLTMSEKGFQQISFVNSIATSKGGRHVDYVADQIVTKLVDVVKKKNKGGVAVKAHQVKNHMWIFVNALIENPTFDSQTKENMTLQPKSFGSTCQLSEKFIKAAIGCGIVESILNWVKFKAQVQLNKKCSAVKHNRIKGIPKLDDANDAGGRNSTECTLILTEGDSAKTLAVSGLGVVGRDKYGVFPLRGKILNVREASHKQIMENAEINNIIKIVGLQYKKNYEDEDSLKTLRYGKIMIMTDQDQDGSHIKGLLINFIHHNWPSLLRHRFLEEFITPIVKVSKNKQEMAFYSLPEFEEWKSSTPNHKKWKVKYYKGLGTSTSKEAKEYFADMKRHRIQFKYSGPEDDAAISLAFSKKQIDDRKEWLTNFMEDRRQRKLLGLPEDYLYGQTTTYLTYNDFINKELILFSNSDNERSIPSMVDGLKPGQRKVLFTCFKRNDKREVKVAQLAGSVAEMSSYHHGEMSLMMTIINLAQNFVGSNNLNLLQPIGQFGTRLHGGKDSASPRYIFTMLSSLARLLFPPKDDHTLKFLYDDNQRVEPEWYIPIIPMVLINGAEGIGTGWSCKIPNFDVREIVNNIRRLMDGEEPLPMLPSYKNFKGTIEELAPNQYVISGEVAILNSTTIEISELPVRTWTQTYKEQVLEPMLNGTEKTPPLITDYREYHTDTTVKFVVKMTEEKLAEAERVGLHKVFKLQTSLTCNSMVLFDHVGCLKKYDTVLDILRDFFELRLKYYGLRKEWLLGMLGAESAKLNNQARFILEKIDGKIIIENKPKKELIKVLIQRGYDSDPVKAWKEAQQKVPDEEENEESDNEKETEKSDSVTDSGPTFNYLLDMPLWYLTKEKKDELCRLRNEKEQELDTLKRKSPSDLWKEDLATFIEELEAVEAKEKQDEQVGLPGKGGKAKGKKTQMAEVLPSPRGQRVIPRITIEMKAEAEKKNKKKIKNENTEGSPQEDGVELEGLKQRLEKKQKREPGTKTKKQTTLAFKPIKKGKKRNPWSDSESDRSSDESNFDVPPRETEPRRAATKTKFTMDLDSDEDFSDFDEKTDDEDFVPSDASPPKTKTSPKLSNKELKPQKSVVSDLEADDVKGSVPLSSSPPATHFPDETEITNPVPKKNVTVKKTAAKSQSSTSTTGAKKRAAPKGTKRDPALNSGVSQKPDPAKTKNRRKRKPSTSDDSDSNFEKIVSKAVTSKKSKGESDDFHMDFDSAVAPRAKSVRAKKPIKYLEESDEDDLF

[3] = test system: panel of 12 E. coli isolates; assay: Susceptibility testing, 12 E. coli isolates; format: cell-based, Escherichia coli
E. coli^WT (ATCC 25922) [4] = assay: Mouse septicemia model; format: in vivo, CD-1 mice; conditions: 96 h; for responders at 20 mg/kg: Mus musculus, iv, read-out: survival
E. coli ATCC 25922 = assay: MIC, wild-type E. coli ATCC 25922; format: cell-based, Escherichia coli; conditions: for MIC: Escherichia coli; for increase in MIC values against the wild-type E. coli strain compared to the permeable strain: E. coli^WT vs E. coli^P
E. coli^WT = assay: Time-kill kinetics, E. coli
A. baumannii^WT = assay: Time-kill kinetics, A. baumannii
E. coli^WT (ATCC 25922) [5] = test system: E. coli^WT (ATCC 25922); design: method as in PMID 29032026; conditions: cited from earlier work
[6] = test system: panel of 12 E. coli isolates; design: method as in PMID 29032026; conditions: abbreviated panel of E. coli strains; cited from earlier work
E. coli SKM18 = assay: microbe, parasite or virus in culture; format: cell-based, Escherichia coli; conditions: for MIC E. coli^R1: E. coli SKM18
[7] = test system: Klebsiella pneumoniae ATCC 35657; assay: MIC, wild-type K. pneumoniae; format: cell-based; conditions: K. pneumoniae ATCC 35657
[8] = test system: Acinetobacter baumannii ATCC BAA-747; assay: MIC, wild-type A. baumannii; format: cell-based; conditions: A. baumannii ATCC BAA-747
A. baumannii MMX2240 = assay: MIC, fluoroquinolone resistant A. baumannii; format: cell-based, Acinetobacter baumannii
in vivo = conditions: CD-1, mouse, iv, 3 mg/kg
E. coli 1609 = assay: MIC, wild-type E. coli 1609; format: cell-based; conditions: Escherichia coli, read-out: MIC E. coli^WT2
E. coli SKM11 = format: cell-based, Escherichia coli
[9] = target: E. coli DNA gyrase^SD-LY (GyrA S83L, D87Y) (Escherichia coli, UniProt P0AES4+P0AES6, D87Y/S83L); format: biochemical; conditions: IC50 ratio
[10] = ATCC25922, read-out: MIC E. coli^WT, E. coli ATCC 25922
[11] = E. coli enzymatic activity, DNA gyrase IC50

Cn1c(CNC2(C)CCC2)cc2cc3c(cc21)OCCc1c-3[nH]c(=O)c(C(=O)O)c1O [Compound 6q, 4-Hydroxy-9-methyl-10-(((1-methylcyclobutyl)amino)methyl)-2-oxo-2,5,6,9-tetrahydro-1H-pyrido[2′,3′:4,5]oxepino[3,2-f]indole-3-carboxylic Acid Hydrochloride]
IC50 (E. coli DNA gyrase; E. coli DNA gyrase IC50): 730 nM
AUC(0-t) at 24 h ([1]; pH 8): 4420 ng·h/mL
clearance ([1]; pH 8): 37 mL/min/kg
MIC ([2]; Acinetobacter baumannii, read-out: A. baumannii MIC range): 0.06 to 16 µg/mL
IC50 (human topoisomerase II): > 100000 nM

C[C@H]1COc2c(N3CCN(C)CC3)c(F)cc3c(=O)c(C(=O)O)cn1c23.C[C@H]1COc2c(N3CCN(C)CC3)c(F)cc3c(=O)c(C(=O)O)cn1c23.O [levofloxacin, reference compound]
A. baumannii MIC range ([2]; 12 strains): 0.06 to 64 µg/mL
E. coli MIC range ([3]; 12 strains): 0.015 to 32 µg/mL

Cn1c(CN2CCCC2)cc2cc3c(cc21)CCCc1c-3[nH]c(=O)c(C(=O)O)c1O [Compound 6v, 4-Hydroxy-9-methyl-2-oxo-10-(pyrrolidin-1-ylmethyl)-1,2,5,6,7,9-hexahydropyrido[3′,2′:6,7]cyclohepta[1,2-f]indole-3-carboxylic Acid Hydrochloride]
IC50 (E. coli DNA gyrase; E. coli DNA gyrase IC50): 210 nM
AUC(0-t) at 24 h ([1]; pH 8): 4050 ng·h/mL
clearance ([1]; pH 8): 41 mL/min/kg
MIC90 ([2]; Acinetobacter baumannii, read-out: A. baumannii MIC90, 12 strains, Mueller Hinton II broth): 8 to 16 µg/mL
responders at 20 mg/kg (E. coli^WT (ATCC 25922) [4]): 100%
E. coli MIC90 ([3]; 12 strains, Mueller Hinton II broth): 1 µg/mL
MIC90 ([3]; Escherichia coli, read-out: E. coli MIC90, 12 strains, Mueller Hinton II broth): 0.5 to 1 µg/mL
IC50 (human topoisomerase II): > 100000 nM

CCNCc1cc2cc3c(cc2n1C)NCCc1c-3[nH]c(=O)c(C(=O)O)c1O [Compound 6g]
MIC (E. coli ATCC 25922; [10]): 7.8 to 31.3 µg/mL (≈ 20.4 to 81.8 µM)

CCc1c(-c2ccc3c(c2)cc(CN2CCC2)n3C)[nH]c(=O)c(C(=O)O)c1O [Compound 2m, 6-(2-(Azetidin-1-ylmethyl)-1-methyl-1H-indol-5-yl)-5-ethyl-4-hydroxy-2-oxo-1,2-dihydropyridine-3-carboxylic Acid Hydrochloride]
mode of bacterial inhibition (time–kill kinetics) (E. coli^WT; E. coli^WT, several concentrations): concentration-dependent bactericidal activity
reduction in the number of CFUs (E. coli^WT; concentrations above the MIC, within ∼2 h): more than 3 log10 units
mode of bacterial inhibition (time–kill kinetics) (A. baumannii^WT; A. baumannii^WT, several concentrations): concentration-dependent bactericidal activity
reduction in the number of CFUs (A. baumannii^WT; above 2-fold of the MIC, within ∼2 h): ~2 log10 units

CN(C)Cc1cc2cc3c(cc2n1C)CCCc1c-3[nH]c(=O)c(C(=O)O)c1O [Compound 6r, 10-((Dimethylamino)methyl)-4-hydroxy-9-methyl-2-oxo-1,2,5,6,7,9-hexahydropyrido[3′,2′:6,7]cyclohepta[1,2-f]indole-3-carboxylic Acid Hydrochloride]
IC50 (E. coli DNA gyrase; E. coli DNA gyrase IC50): 410 nM
AUC(0-t) at 24 h ([1]; pH 8): 3520 ng·h/mL
clearance ([1]; pH 8): 47 mL/min/kg
responders at 20 mg/kg (E. coli^WT (ATCC 25922) [4]): 100%
IC50 (human topoisomerase II): > 100000 nM

CCc1c(-c2ccc(N3C[C@@H]4[C@@H](N)[C@@H]4C3)cc2)[nH]c(=O)c(C(=O)O)c1O [Compound 1b]
efficacy in a murine septicemia model (E. coli^WT (ATCC 25922) [5]): demonstrated efficacy
MIC90 E. coli [6]: 8 µg/mL (≈ 22.5 µM)

Cn1c(CN2CCCC2)cc2cc3c(cc21)OCCc1c-3[nH]c(=O)c(C(=O)O)c1O [Compound 6w, 4-Hydroxy-9-methyl-2-oxo-10-(pyrrolidin-1-ylmethyl)-2,5,6,9-tetrahydro-1H-pyrido[2′,3′:4,5]oxepino[3,2-f]indole-3-carboxylic Acid Hydrochloride]
IC50 (E. coli DNA gyrase; E. coli DNA gyrase IC50): 280 nM
IC50 (human topoisomerase II): > 100000 nM

10-((sec-Butylamino)methyl)-4-hydroxy-9-methyl-2-oxo-1,2,5,6,7,9-hexahydropyrido[3′,2′:6,7]cyclohepta[1,2-f]indole-3-carboxylic Acid Hydrochloride [Compound 6n]
MIC E. coli^R1 (E. coli SKM18): 0.78 µg/mL
MIC E. coli^WT (E. coli ATCC 25922; E. coli ATCC 25922): 0.78 µg/mL
MIC K. pneu^WT [7]: 0.50 µg/mL
MIC A. bau^WT [8]: 0.78 µg/mL
MIC A. bau^R (A. baumannii MMX2240): 0.50 µg/mL

CCNCc1cc2cc3c(cc2n1C)CCCc1c-3[nH]c(=O)c(C(=O)O)c1O [Compound 6a, 10-((Ethylamino)methyl)-4-hydroxy-9-methyl-2-oxo-1,2,5,6,7,9-hexahydropyrido[3′,2′:6,7]cyclohepta[1,2-f]indole-3-carboxylic Acid Hydrochloride]
IC50 (E. coli DNA gyrase; E. coli DNA gyrase IC50, gyrase^WT): 560 nM
IC50 (E. coli DNA gyrase; [11]): 100 nM
IC50 (human topoisomerase II): > 100000 nM

CN(C)c1cc(NC(=O)CNC(C)(C)C)c(O)c2c1C[C@H]1C[C@H]3[C@H](N(C)C)C(O)=C(C(N)=O)C(=O)[C@@]3(O)C(O)=C1C2=O [tigecycline, reference compound]
MIC E. coli^R1 (E. coli SKM18): 0.25 µg/mL (≈ 0.427 µM)
MIC E. coli^WT (E. coli ATCC 25922; E. coli ATCC 25922): 0.13 µg/mL (≈ 0.222 µM)
MIC K. pneu^WT [7]: 0.13 µg/mL (≈ 0.222 µM)
MIC A. bau^WT [8]: 0.78 µg/mL (≈ 1.33 µM)
MIC A. bau^R (A. baumannii MMX2240): 0.78 µg/mL (≈ 1.33 µM)

CC(C)NCc1cc2cc3c(cc2n1C)NCCc1c-3[nH]c(=O)c(C(=O)O)c1O [Compound 6l]
MIC (E. coli ATCC 25922; [10]): 7.8 to 31.3 µg/mL (≈ 19.7 to 79 µM)

CC(C)NCc1cc2cc3c(cc2n1C)CCCc1c-3[nH]c(=O)c(C(=O)O)c1O [Compound 6i, 4-Hydroxy-10-((isopropylamino)methyl)-9-methyl-2-oxo-1,2,5,6,7,9-hexahydropyrido[3′,2′:6,7]cyclohepta[1,2-f]indole-3-carboxylic Acid Hydrochloride]
IC50 (E. coli DNA gyrase; E. coli DNA gyrase IC50): 2700 nM
AUC(0-t) at 24 h ([1]; pH 8): 1810 ng·h/mL
clearance ([1]; pH 8): 64 mL/min/kg
IC50 (human topoisomerase II): > 100000 nM

Cn1c(CNC2(C)CCC2)cc2cc3c(cc21)CCCc1c-3[nH]c(=O)c(C(=O)O)c1O [Compound 6p, 4-Hydroxy-9-methyl-10-(((1-methylcyclobutyl)amino)methyl)-2-oxo-1,2,5,6,7,9-hexahydropyrido[3′,2′:6,7]cyclohepta[1,2-f]indole-3-carboxylic Acid Hydrochloride]
AUC(0-t) at 24 h ([1]; pH 4): 4580 ng·h/mL
clearance ([1]; pH 4): 35 mL/min/kg
responders at 20 mg/kg (E. coli^WT (ATCC 25922) [4]): 0%

COc1c(N2C[C@@H]3CCCN[C@@H]3C2)c(F)cc2c(=O)c(C(=O)O)cn(C3CC3)c12 [moxifloxacin, reference compound]
AUC(0-t) at 24 h (in vivo): 640 ng·h/mL
survival (E. coli^WT (ATCC 25922) [4]; neutropenic mice, E. coli^WT 100 × LD50, 3 mg/kg at 1 and 5 h postinfection (b.i.d.)): 100 ^n %

CCc1c(-c2ccc3c(ccn3C)c2)[nH]c(=O)c(C(=O)O)c1O [Compound 2a, 5-Ethyl-4-hydroxy-6-(1-methyl-1H-indol-5-yl)-2-oxo-1,2-dihydropyridine-3-carboxylic Acid]
increase in MIC values against the wild-type E. coli strain compared to the permeable strain (E. coli ATCC 25922): greater than 25 fold

O=C(O)c1cn(C2CC2)c2cc(N3CCNCC3)c(F)cc2c1=O [ciprofloxacin]
MIC (E. coli 1609): 0.024 µg/mL (≈ 0.0724 µM)
MIC E. coli^R1 (E. coli SKM18): > 250 µg/mL
increase in MIC against E. coli^R1 (E. coli SKM18; additional Topo IV mutations, vs E. coli^R3): ~250 fold
increase in MIC against E. coli^R3 (E. coli SKM11): 32 fold
MIC (E. coli ATCC 25922; ATCC25922, E. coli ATCC 25922, read-out: MIC E. coli^WT): 0.012 µg/mL (≈ 0.0362 µM)
reduction in activity against DNA gyrase^SD-LY compared to DNA gyrase^WT [9]: greater than 13 fold

CN(C)Cc1cc2cc3c(cc2n1C)OCCc1c-3[nH]c(=O)c(C(=O)O)c1O [Compound 6s, 10-((Dimethylamino)methyl)-4-hydroxy-9-methyl-2-oxo-2,5,6,9-tetrahydro-1H-pyrido[2′,3′:4,5]oxepino[3,2-f]indole-3-carboxylic Acid Hydrochloride]
IC50 (E. coli DNA gyrase; E. coli DNA gyrase IC50): 490 nM
AUC(0-t) at 24 h ([1]; pH 4): 2930 ng·h/mL
clearance ([1]; pH 4): 53 mL/min/kg
responders at 20 mg/kg (E. coli^WT (ATCC 25922) [4]): 100%
IC50 (human topoisomerase II): > 100000 nM

CNCc1cc2cc3c(cc2n1C)CCc1c-3[nH]c(=O)c(C(=O)O)c1O.Cl [Compound 5a]
IC50 (E. coli DNA gyrase; [11]): 900 nM
MIC (E. coli SKM18; Escherichia coli, SKM18, read-out: MIC E. coli^R1, E. coli SKM18): 7.8 µg/mL
MIC (E. coli ATCC 25922; [10]): 7.8 µg/mL

CCc1c(-c2ccc3c(c2)cc(C)n3C)[nH]c(=O)c(C(=O)O)c1O [Compound 2b, 6-(1,2-Dimethyl-1H-indol-5-yl)-5-ethyl-4-hydroxy-2-oxo-1,2-dihydropyridine-3-carboxylic Acid]
increase in MIC values against the wild-type E. coli strain compared to the permeable strain (E. coli ATCC 25922): greater than 25 fold

CO/N=C(\C(=O)N[C@@H]1C(=O)N2C(C(=O)[O-])=C(C[N+]3(C)CCCC3)CS[C@H]12)c1csc(N)n1 [cefepime, reference compound]
MIC E. coli^R1 (E. coli SKM18): 0.05 µg/mL (≈ 0.104 µM)
MIC E. coli^WT (E. coli ATCC 25922; E. coli ATCC 25922): 0.05 µg/mL (≈ 0.104 µM)
MIC K. pneu^WT [7]: 0.02 µg/mL (≈ 0.0416 µM)
MIC A. bau^WT [8]: 0.78 µg/mL (≈ 1.62 µM)
MIC A. bau^R (A. baumannii MMX2240): 0.78 µg/mL (≈ 1.62 µM)
